Experimental data from PubChem BioAssay (NCI).
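Tested at 5 concentrations; 48 h exposure; 96-well plates; endpoints linearly interpolated, else capped at highest concentration. At the TGI there is no net growth.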

Tested on: UACC-62 melanoma
Test: DTP human tumour cell line panel, 48 h

[O-]c1c2cc(-[n+]3c(-c4ccccc4)cc(-c4ccccc4)cc3-c3ccccc3)cc1CO[C@@H](c1ccccc1)[C@H](c1ccccc1)OCc1cccc(n1)CO[C@@H](c1ccccc1)[C@H](c1ccccc1)OC2
TGI: 1680 nM
